These results are taken from ChEMBL document CHEMBL3414469, “Targeting DNA methylation with small molecules: what's next?” (J Med Chem, 2015).

Series [1] concerns the target DNA (cytosine-5)-methyltransferase 1 (Homo sapiens, UniProt P26358). Briefly: Inhibition of His6-tagged human recombinant DNMT1 expressed in insect Sf9 cells assessed as reduction in DNA methyltransferase activity using 5'-biotinylated 45-bp unmethylated or hemimethylated oligonucleotide substrates and [3H]-AdoMet by liquid scintillation counting method.
Series [2] addresses DNA (cytosine-5)-methyltransferase 3B (Homo sapiens, UniProt Q9UBC3). Briefly: Inhibition of His6-tagged human recombinant DNMT3b expressed in insect Sf9 cells assessed as reduction in DNA methyltransferase activity using 5'-biotinylated 45-bp unmethylated or hemimethylated oligonucleotide substrates and [3H]-AdoMet by liquid scintillation counting method.
For the next series, the target named is DNMT3A2/3L complex (Homo sapiens, UniProt Q9Y6K1). Put plainly: Inhibition of His6-tagged human recombinant DNMT3A/DNMT3L expressed in insect Sf9 cells assessed as reduction in DNA methyltransferase activity using 5'-biotinylated 45-bp unmethylated or hemimethylated oligonucleotide substrates and [3H]-AdoMet by liquid scintillation counting method.
A short description of series [3]: Half life in sc dosed patient with myelodysplastic syndrome. As to conditions: human, in vivo.
Series [4] addresses DNA (cytosine-5)-methyltransferase 3A (Homo sapiens, UniProt Q9Y6K1). Put plainly: Inhibition of His6-tagged human recombinant DNMT3a expressed in insect Sf9 cells assessed as reduction in DNA methyltransferase activity using 5'-biotinylated 45-bp unmethylated or hemimethylated oligonucleotide substrates and [3H]-AdoMet by liquid scintillation counting method.
A short description of series [5]: Half life in patient with myelodysplastic syndrome dosed via infusion. The series is classed as ADME, organism-based. As to conditions: human, in vivo, iv.

Sequence of DNMT3A2/3L complex (Q9Y6K1 whole entry, looked up, one chain of several): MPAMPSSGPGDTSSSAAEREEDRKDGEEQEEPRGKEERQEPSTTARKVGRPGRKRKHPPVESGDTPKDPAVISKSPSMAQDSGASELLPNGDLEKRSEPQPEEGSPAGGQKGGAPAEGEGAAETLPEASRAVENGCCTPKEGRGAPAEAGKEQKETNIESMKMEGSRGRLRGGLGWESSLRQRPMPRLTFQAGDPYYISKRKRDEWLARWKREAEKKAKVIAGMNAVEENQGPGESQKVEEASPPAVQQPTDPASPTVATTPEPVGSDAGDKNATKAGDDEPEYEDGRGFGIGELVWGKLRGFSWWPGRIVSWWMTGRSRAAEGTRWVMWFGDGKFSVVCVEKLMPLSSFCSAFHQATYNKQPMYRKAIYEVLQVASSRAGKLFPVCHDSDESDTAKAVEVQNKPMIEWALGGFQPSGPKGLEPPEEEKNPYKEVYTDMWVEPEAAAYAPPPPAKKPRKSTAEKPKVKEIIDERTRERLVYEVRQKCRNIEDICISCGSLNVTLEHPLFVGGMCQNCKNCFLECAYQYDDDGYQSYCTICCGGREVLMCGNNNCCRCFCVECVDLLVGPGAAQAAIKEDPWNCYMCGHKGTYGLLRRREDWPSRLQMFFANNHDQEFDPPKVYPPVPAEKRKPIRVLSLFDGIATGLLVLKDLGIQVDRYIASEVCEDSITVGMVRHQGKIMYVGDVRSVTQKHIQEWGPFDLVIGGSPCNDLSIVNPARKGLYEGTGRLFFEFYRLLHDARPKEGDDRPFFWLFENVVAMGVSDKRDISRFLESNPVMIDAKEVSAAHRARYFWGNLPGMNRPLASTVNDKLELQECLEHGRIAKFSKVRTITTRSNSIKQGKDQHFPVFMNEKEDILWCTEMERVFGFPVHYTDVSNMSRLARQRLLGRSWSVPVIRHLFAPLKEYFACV
Sequence of DNA (cytosine-5)-methyltransferase 1 (P26358 whole entry): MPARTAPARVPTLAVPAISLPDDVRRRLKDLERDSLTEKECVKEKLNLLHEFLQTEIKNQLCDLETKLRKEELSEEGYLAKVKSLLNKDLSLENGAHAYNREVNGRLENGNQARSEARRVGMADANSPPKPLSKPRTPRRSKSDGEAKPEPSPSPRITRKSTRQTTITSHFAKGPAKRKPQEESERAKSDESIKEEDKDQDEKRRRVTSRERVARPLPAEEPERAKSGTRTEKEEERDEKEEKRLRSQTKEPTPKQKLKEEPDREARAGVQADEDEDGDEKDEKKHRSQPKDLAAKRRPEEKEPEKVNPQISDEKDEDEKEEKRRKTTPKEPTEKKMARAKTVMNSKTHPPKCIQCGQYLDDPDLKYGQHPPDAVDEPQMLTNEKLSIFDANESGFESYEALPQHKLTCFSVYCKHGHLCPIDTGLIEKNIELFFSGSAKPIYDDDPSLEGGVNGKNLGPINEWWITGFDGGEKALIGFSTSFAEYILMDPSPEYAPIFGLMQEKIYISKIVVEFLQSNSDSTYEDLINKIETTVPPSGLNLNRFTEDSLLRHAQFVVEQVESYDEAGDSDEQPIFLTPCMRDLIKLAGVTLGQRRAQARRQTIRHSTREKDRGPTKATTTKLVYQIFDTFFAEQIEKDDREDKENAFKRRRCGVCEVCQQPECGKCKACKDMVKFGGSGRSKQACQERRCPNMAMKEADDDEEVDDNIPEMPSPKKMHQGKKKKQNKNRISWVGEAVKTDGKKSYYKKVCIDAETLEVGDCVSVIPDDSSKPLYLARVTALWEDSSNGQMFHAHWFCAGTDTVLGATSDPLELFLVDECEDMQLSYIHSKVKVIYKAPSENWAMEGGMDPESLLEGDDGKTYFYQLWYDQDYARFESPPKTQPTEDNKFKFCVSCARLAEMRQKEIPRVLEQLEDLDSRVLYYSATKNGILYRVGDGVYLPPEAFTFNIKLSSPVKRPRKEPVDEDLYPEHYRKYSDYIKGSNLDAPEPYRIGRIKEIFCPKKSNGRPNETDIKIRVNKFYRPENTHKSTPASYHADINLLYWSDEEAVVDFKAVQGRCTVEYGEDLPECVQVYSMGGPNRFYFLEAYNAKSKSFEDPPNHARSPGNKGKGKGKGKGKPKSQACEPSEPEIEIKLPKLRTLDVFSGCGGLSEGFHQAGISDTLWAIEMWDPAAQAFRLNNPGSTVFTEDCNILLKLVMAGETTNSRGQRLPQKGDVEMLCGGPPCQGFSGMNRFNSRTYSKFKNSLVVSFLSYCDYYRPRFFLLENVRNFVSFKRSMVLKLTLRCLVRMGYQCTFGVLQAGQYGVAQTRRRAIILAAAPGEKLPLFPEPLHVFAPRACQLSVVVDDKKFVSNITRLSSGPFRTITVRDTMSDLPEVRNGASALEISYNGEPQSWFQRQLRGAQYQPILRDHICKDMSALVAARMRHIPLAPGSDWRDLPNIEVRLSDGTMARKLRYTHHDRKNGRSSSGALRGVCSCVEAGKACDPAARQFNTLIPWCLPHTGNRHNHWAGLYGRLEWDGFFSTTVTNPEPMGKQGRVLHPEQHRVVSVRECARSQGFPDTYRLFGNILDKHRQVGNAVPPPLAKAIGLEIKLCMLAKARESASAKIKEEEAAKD
Sequence of DNA (cytosine-5)-methyltransferase 3A (Q9Y6K1 whole entry, looked up, the tested form may be a part): as the sequence (Q9Y6K1 whole entry, looked up, one chain of several) above

As for `O=[N+]([O-])c1ccc(C2=NC[C@H](CN3CCCC3)O2)cc1`, the IC50 in series [1] was 150 µM.
Consider `C[C@@H]1O[C@@H](CC(=O)O)CC2=C1C(=O)c1c(O)cccc1C2=O` [NANAFROCIN], for which the IC50 in series [2] stood at 0.5 µM.
In the case of `O=C1C(Cl)=C(Cl)C(=O)c2ccccc21` [Dichlon], the IC50 is 0.5 µM on DNMT3A2/3L complex and 1.6 µM in series [1].
As to `Nc1ncn([C@@H]2O[C@H](CO)[C@@H](O)[C@H]2O)c(=O)n1` [AZACITIDINE], the half-life in series [3] came out at 41 min.
For the compound `O=[N+]([O-])c1cc(S(=O)(=O)Nc2ccc(O)c3ccccc23)ccc1Cl`, the IC50 in series [4] was found to be 38 µM; in series [1], 1.2 µM.
As for `Cc1cc(Nc2ccc(NC(=O)c3ccc(Nc4ccnc5ccccc45)cc3)cc2)nc(N)n1`, the IC50 in series [2] stood at 7.5 µM.
Consider `CCN(CC)CCNC(=O)c1ccc(NCCCCCCCCCCCCN2C(=O)c3ccccc3C2=O)cc1`, for which the figures for the IC50 (at DNMT3A2/3L complex; in series [1]) were 21 µM and 4 µM, respectively.
On to `Nc1ncn([C@H]2C[C@H](O)[C@@H](CO)O2)c(=O)n1` [DECITABINE], for which the half-life in series [5] was 10 min.
Regarding `O=c1c(-c2ccc(O)cc2)coc2cc(O)cc(O)c12` [GENISTEIN], the IC50 at DNMT3A2/3L complex is more than 100 µM; in series [1], 30 µM.
For `CCN(CC)CCNC(=O)c1ccc(N)cc1` [PROCAINAMIDE], in that order: more than 300 µM and more than 500 µM.
`O=C(O[C@@H]1Cc2c(O)cc(O)cc2O[C@@H]1c1cc(O)c(O)c(O)c1)c1cc(O)c(O)c(O)c1` [EPIGALOCATECHIN GALLATE]: the IC50 in series [1] amounted to 0.5 µM.
As for `O=C(O)[C@H](Cc1c[nH]c2ccccc12)N1C(=O)c2ccccc2C1=O`, the IC50 on DNMT3A2/3L complex was found to be 315 µM.
With `O=C(O)[C@H](Cc1c[nH]c2ccccc12)N1C(=O)C=CC1=O`, the 50% inhibitory concentration (IC50) in series [1] was 20 µM.

In general, IC50 refers to the midpoint of a concentration-inhibition curve. As a reminder, the half-life is how long it takes for the measured level to halve. Low readings indicate rapid decline, high ones slow decline.
